# Measurements reported in patent publication US20090137499A1, “BENZYLPHENYL GLUCOPYRANOSIDE DERIVATIVE” (priority 2006, published 2009).
# Target: T1, human SGLT2 (Homo sapiens, UniProt P31639)
# T1 construct: expressed in transfected cells
# T1 sequence (P31639 1-672): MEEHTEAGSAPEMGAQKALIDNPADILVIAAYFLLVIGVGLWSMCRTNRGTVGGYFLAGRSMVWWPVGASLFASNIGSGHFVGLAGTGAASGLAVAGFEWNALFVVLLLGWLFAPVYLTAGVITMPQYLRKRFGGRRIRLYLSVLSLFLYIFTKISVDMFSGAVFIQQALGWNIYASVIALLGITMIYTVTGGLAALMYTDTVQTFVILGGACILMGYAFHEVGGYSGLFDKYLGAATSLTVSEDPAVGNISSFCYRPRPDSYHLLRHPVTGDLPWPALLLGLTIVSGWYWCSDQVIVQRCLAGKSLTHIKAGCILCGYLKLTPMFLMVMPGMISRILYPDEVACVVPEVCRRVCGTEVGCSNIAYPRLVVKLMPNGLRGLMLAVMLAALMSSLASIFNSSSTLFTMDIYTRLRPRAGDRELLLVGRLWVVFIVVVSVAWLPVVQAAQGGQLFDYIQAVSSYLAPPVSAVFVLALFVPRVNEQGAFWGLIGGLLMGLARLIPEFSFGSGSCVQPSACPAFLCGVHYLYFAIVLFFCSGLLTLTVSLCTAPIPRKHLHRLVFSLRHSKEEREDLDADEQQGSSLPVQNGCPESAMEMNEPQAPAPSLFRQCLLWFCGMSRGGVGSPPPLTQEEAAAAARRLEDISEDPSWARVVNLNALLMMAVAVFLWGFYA
# Experiment: Determination of SGLT2 inhibiting activity using human SGLT2 expressing cell ([14C]-α-methyl-D-glucopyranoside uptake)
# Assay type: cell-based
# Settings: HEK-SGLT2 cells, 1 mM [14C]-α-methyl-D-glucopyranoside, 37° C., 30 min
# Method: Determination of SGLT2 Inhibiting Activity Using Human SGLT2 Expressing Cell
# 1) Preparation of Vector Expressing Human SGLT2 cDNA in Animal Cell
# Amplification was performed by PCR using human SGLT2 cDNA clone (Origene: Clone Number, TC303267; GenBank accession number, NM 003041) as a template. The sense oligonucleotide primer for PCR was 5′-[…]-3′ (Primer 3: SEQ ID NO: 3 in the sequence listing),
# and the antisense oligonucleotide primer was 5′-[…]-3′ (Primer 4: SEQ ID NO: 4 in the sequence listing). The PCR product was subjected to agarose electrophoresis, then a target DNA fragment was recovered from a single band corresponding to 2037 bases, digested with restriction enzymes HindIII and XhoI, and introduced into the HindIII/XhoI site of vector pCMV-Script (Stratagene) to obtain SGLT2 expressing plasmid pCMV-SGLT2. A HindIII/XhoI fragment was excised from pCMV-SGLT2 and introduced into the BamHI/XhoI site of pENTR1A (Gateway, Invitrogen) to prepare pENTR-SGLT2. Retrovirus vector pLPCX (Clontech) into which Gateway Vector Conversion System Cassette A (Invitrogen) was introduced was used as the destination plasmid to prepare SGLT2 expressing retrovirus vector pLPCX-SGLT2.
# 2) Establishment of Human SGLT2 Expressing Cell
# The retrovirus pLPCX-SGLT2 obtained in 1) was transfected into integrin αvβ3 expressing HEK-293 cells, the cells were treated with antibiotic G418 (brand name, Geneticin: Invitrogen) and puromycin (Clontech) to obtain HEK-SGLT2 cells stably expressing the target vector having resistance. The stably expressing cells were cultured and maintained in DMEM medium containing […] G418, […] puromycin, 3 mM KGT-1075, and 10% FBS.
# 3) Determination of SGLT2 Inhibiting Activity
# HEK-SGLT2 cells were suspended at a density of 10^6 cells/mL in DMEM medium containing 250 mg/mil G418, 1 mg/ml puromycin, and 10% FBS, and 100 μL was seeded in each well of a type 1 collagen-coated 96-well culture plate (Corning). On the following day, the medium was replaced with a sugar uptake buffer (10 mM HEPES [pH 7.5], 5 mM Tris-HCl [pH 7.5], 140 mM NaCl, 2 mM KCl, 1 mM CaCl2, 1 mM MgCl2), and the cells were cultured with 1 mM [^14C]-α-methyl-D-glucopyranoside (0.1 mCi) and a test compound at 37° C. for 30 min, and then washed 3 times with a washing buffer (10 mM HEPES (pH 7.5), 5 mM Tris-HCl (pH 7.5), 140 mM choline chloride, 2 mM KCl, 1 mM CaCl2, 1 mM MgCl2). 100 μL of liquid scintillation cocktail (brand name, Supermix: Perkin-Elmer) was added to each well of the 96-well plate and stirred for 10 min, and then radioactivity was determined with micro β (Perkin-Elmer), a type of liquid scintillation counter. The value obtained by deducting the radioactivity in the presence of an excess amount of an SGLT2 inhibiting compound as the background from each measured value was taken as the sugar uptake activity, the inhibition rate (%) was calculated from the control sugar uptake activity obtained without using a test compound and the sugar uptake activity obtained using a test compound having a predetermined concentration, and the concentrations of the test compound at which the sugar uptake activity was inhibited by 50% were assessed.
row,SMILES,IC50
1,"COc1ccc(Cc2ccc(CO)cc2O[C@@H]2O[C@H]([C@@H](C)O)[C@@H](O)[C@H](O)[C@H]2O)cc1 [Example 9, 2-(4-Methoxybenzyl)-5-hydroxymethylphenyl 7-deoxy-D-glycero-β-D-gluco-heptopyranoside]",9.4 nM
2,"COc1ccc(Cc2cc(CO)cnc2O[C@@H]2O[C@H]([C@@H](C)O)[C@@H](O)[C@H](O)[C@H]2O)cc1 [Example 38, 3-(4-Methoxybenzyl)-5-hydroxymethylpyridin-2-yl 7-deoxy-D-glycero-β-D-gluco-heptopyranoside]",17 nM
3,"CCc1ccc(Cc2ccc(N)cc2O[C@@H]2O[C@H](C(C)O)[C@@](C)(O)[C@H](O)[C@H]2O)cc1 (stereo partly drawn) [Example 41, 5-Amino-2-(4-ethylbenzyl)phenyl 4-C-methyl-7-deoxy-glycero-β-D-gluco-heptapyranoside]",14 nM
4,"CCOc1ccc(Cc2c(F)cc(CO)cc2O[C@@H]2O[C@H]([C@@H](C)O)[C@@H](O)[C@H](O)[C@H]2O)cc1 [Example 46, 2-(4-Ethoxybenzyl)-3-fluoro-5-hydroxymethyl-phenyl 7-deoxy-D-glycero-β-D-gluco-heptopyranoside]",16 nM
5,"CCc1ccc(Cc2c(F)cc(CO)cc2O[C@@H]2O[C@H]([C@@H](C)O)[C@@H](O)[C@H](O)[C@H]2O)cc1 [Example 47, 2-(4-Ethylbenzyl)-3-fluoro-5-hydroxymethyl-phenyl 7-deoxy-D-glycero-β-D-gluco-heptopyranoside]",38 nM
6,"CSc1ccc(Cc2ccc(CO)cc2O[C@@H]2O[C@H]([C@@H](C)O)[C@@H](O)[C@H](O)[C@H]2O)cc1 [Example 66, 5-Hydroxymethyl-2-(4-methylsulfanylbenzyl)phenyl 7-deoxy-D-glycero-β-D-gluco-heptopyranoside]",23 nM
7,"CCc1ccc(Cc2ccc(CCO)cc2O[C@@H]2O[C@H]([C@@H](C)O)[C@@H](O)[C@H](O)[C@H]2O)cc1 [Example 67, 2-(4-Ethylbenzyl)-5-(2-hydroxyethyl)phenyl 7-deoxy-D-glycero-β-D-gluco-heptopyranoside]",30 nM
8,"Cc1cc(C)c(Cc2ccc(CCO)cc2)c(O[C@@H]2O[C@H]([C@@H](C)O)[C@@H](O)[C@H](O)[C@H]2O)c1 [Example 70, 2-[4-(2-Hydroxyethyl)benzyl]-3,5-dimethylphenyl 7-deoxy-D-glycero-β-D-gluco-heptopyranoside]",40 nM
9,"CCCOc1ccc(Cc2c(F)cc(CO)cc2O[C@@H]2O[C@H]([C@@H](C)O)[C@@H](O)[C@H](O)[C@H]2O)cc1 [Example 74, 3-Fluoro-5-hydroxymethyl-2-(4-propoxybenzyl)phenyl 7-deoxy-D-glycero-β-D-gluco-heptopyranoside]",47 nM
10,"CC(C)Oc1ccc(Cc2c(F)cc(CO)cc2O[C@@H]2O[C@H]([C@@H](C)O)[C@@H](O)[C@H](O)[C@H]2O)cc1 [Example 75, 3-Fluoro-5-hydroxymethyl-2-(4-isopropoxybenzyl)phenyl 7-deoxy-D-glycero-β-D-gluco-heptopyranoside]",38 nM
11,"COc1ccc(Cc2ccc(CO)cc2O[C@@H]2O[C@H]([C@@H](C)O)[C@@H](O)[C@H](O)[C@H]2O)cc1F [Example 78, 2-(3-Fluoro-4-methoxybenzyl)-5-hydroxymethylphenyl 7-deoxy-D-glycero-β-D-gluco-heptopyranoside]",11 nM

# Continued by falling IC50, values first:
row,IC50,SMILES
1,61 nM,"COc1ccc(Cc2c(Cl)cc(C)cc2O[C@@H]2O[C@H]([C@@H](C)O)[C@@H](O)[C@H](O)[C@H]2O)cc1 [Example 43, 3-Chloro-5-methyl-2-(4-methoxybenzyl)phenyl 7-deoxy-D-glycero-β-D-gluco-heptopyranoside]"
2,45 nM,"CCOc1ccc(Cc2c(Cl)cc(CO)cc2O[C@@H]2O[C@H]([C@@H](C)O)[C@@H](O)[C@H](O)[C@H]2O)cc1 [Example 45, 3-Chloro-2-(4-ethoxybenzyl)-5-hydroxymethyl-phenyl 7-deoxy-D-glycero-β-D-gluco-heptopyranoside]"
3,40 nM,"COc1ccc(Cc2c(C)cc(C)cc2O[C@@H]2O[C@H]([C@@H](C)O)[C@@H](O)[C@H](O)[C@H]2O)cc1F [Example 69, 2-(3-Fluoro-4-methoxybenzyl)-3,5-dimethylphenyl 7-deoxy-D-glycero-β-D-gluco-heptopyranoside]"
4,34 nM,"C[C@@H](O)[C@H]1O[C@@H](Oc2cc(CO)cc(F)c2Cc2ccc(OC3CC3)cc2)[C@H](O)[C@@H](O)[C@@H]1O [Example 63, 2-(4-Cyclopropoxybenzyl)-3-fluoro-5-hydroxymethyl-phenyl 7-deoxy-D-glycero-β-D-gluco-heptopyranoside]"
5,32 nM,"C[C@@H](O)[C@H]1O[C@@H](Oc2cc(CO)ccc2Cc2ccc(C3CC3)cc2)[C@H](O)[C@@H](O)[C@@H]1O [Example 62, 2-(4-Cyclopropylbenzyl)-5-hydroxymethylphenyl 7-deoxy-D-glycero-β-D-gluco-heptopyranoside]"
6,25 nM,"COc1ccc(Cc2c(C)cc(C)cc2O[C@@H]2O[C@H]([C@@H](C)O)[C@@H](O)[C@H](O)[C@H]2O)cc1 [Example 77, 3,5-Dimethyl-2-(4-methoxybenzyl)phenyl 7-deoxy-D-glycero-β-D-gluco-heptopyranoside]"
7,18 nM,"COc1ccc(Cc2c(Cl)cccc2O[C@@H]2O[C@H]([C@@H](C)O)[C@@H](O)[C@H](O)[C@H]2O)cc1 [Example 42, 3-Chloro-2-(4-methoxybenzyl)phenyl 7-deoxy-D-glycero-β-D-gluco-heptopyranoside]"
8,12 nM,"C[C@@H](O)[C@H]1O[C@@H](Oc2cc(CO)ccc2Cc2ccc(OC3CC3)cc2)[C@H](O)[C@@H](O)[C@@H]1O [Example 60, 2-(4-Cyclopropyloxybenzyl)-5-hydroxymethylphenyl 7-deoxy-D-glycero-β-D-gluco-heptopyranoside]"
9,12 nM,"C[C@@H](O)[C@H]1O[C@@H](Oc2cc(CO)ccc2Cc2ccc(CCCO)cc2)[C@H](O)[C@@H](O)[C@@H]1O [Example 68, 5-Hydroxymethyl-2-[4-(3-hydroxypropyl)benzyl]phenyl 7-deoxy-D-glycero-β-D-gluco-heptopyranoside]"
10,11 nM,"COc1ccc(Cc2c(Cl)cc(CO)cc2O[C@@H]2O[C@H]([C@H](C)O)[C@@H](O)[C@H](O)[C@H]2O)cc1 [Example 57, 3-Chloro-5-hydroxymethyl-2-(4-methoxybenzyl)phenyl 7-deoxy-L-glycero-β-D-gluco-heptopyranoside]"
11,10 nM,"COc1ccc(Cc2c(Cl)cc(CO)cc2O[C@@H]2O[C@H]([C@@H](C)O)[C@@H](O)[C@H](O)[C@H]2O)cc1 [Example 44, 3-Chloro-5-hydroxymethyl-2-(4-methoxybenzyl)phenyl 7-deoxy-D-glycero-β-D-gluco-heptopyranoside]"
12,9.4 nM,"COc1ccc(Cc2ccc(CO)cc2O[C@@H]2O[C@H]([C@@H](C)O)[C@@H](O)[C@H](O)[C@H]2O)c(F)c1 [Example 82, 2-(2-Fluoro-4-methoxybenzyl)-5-hydroxymethylphenyl 7-deoxy-D-glycero-β-D-gluco-heptopyranoside]"
